Laboratory results taken from PubChem BioAssay (NCI).
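Cultured in 96-well plates, cells were exposed to test compound for 48 hours across five concentrations. TGI denotes the concentration required for complete inhibition of growth.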

How the values were obtained:
Assay in all cases: growth of human tumour cells (NCI), 48 h
SF-268 CNS = tested on: SF-268 CNS
NCI-H226 lung = tested on: NCI-H226 lung
HOP-62 NSCLC = tested on: HOP-62 NSCLC
OVCAR-4 ovarian = tested on: OVCAR-4 ovarian
SW-620 colon = tested on: SW-620 colon
786-0 renal = tested on: 786-0 renal
UACC-257 melanoma = tested on: UACC-257 melanoma
ACHN renal = tested on: ACHN renal
TK-10 renal = tested on: TK-10 renal
SK-OV-3 ovarian = tested on: SK-OV-3 ovarian
CCRF-CEM leukemia = tested on: CCRF-CEM leukemia
SN12C renal = tested on: SN12C renal
HOP-92 NSCLC = tested on: HOP-92 NSCLC
RXF 393 renal = tested on: RXF 393 renal
MCF7 breast = tested on: MCF7 breast
HT29 colon = tested on: HT29 colon
A549 NSCLC = tested on: A549 NSCLC
LOX IMVI melanoma = tested on: LOX IMVI melanoma
SF-295 CNS = tested on: SF-295 CNS
HCT-15 colon = tested on: HCT-15 colon
OVCAR-8 ovarian = tested on: OVCAR-8 ovarian
NCI-H23 lung = tested on: NCI-H23 lung
OVCAR-3 ovarian = tested on: OVCAR-3 ovarian
HCT-116 colon = tested on: HCT-116 colon
NCI-H460 lung = tested on: NCI-H460 lung
DU-145 prostate = tested on: DU-145 prostate
SK-MEL-5 melanoma = tested on: SK-MEL-5 melanoma
A498 renal = tested on: A498 renal
HCC-2998 colon = tested on: HCC-2998 colon
NCI-H522 lung = tested on: NCI-H522 lung
SNB-75 CNS = tested on: SNB-75 CNS
MDA-MB-435 = tested on: MDA-MB-435
T-47D breast = tested on: T-47D breast
MDA-N = tested on: MDA-N
BT-549 breast = tested on: BT-549 breast
CAKI-1 renal = tested on: CAKI-1 renal
IGROV1 ovarian = tested on: IGROV1 ovarian
SK-MEL-2 melanoma = tested on: SK-MEL-2 melanoma
KM12 colon = tested on: KM12 colon
MALME-3M melanoma = tested on: MALME-3M melanoma
EKVX NSCLC = tested on: EKVX NSCLC
MDA-MB-231 breast = tested on: MDA-MB-231 breast
RPMI-8226 leukemia = tested on: RPMI-8226 leukemia
U251 CNS = tested on: U251 CNS
SNB-19 CNS = tested on: SNB-19 CNS
UO-31 renal = tested on: UO-31 renal
SK-MEL-28 melanoma = tested on: SK-MEL-28 melanoma
NCI/ADR-RES ovarian = tested on: NCI/ADR-RES ovarian
M14 melanoma = tested on: M14 melanoma
OVCAR-5 ovarian = tested on: OVCAR-5 ovarian
PC-3 prostate = tested on: PC-3 prostate
COLO 205 colon = tested on: COLO 205 colon
SF-539 CNS = tested on: SF-539 CNS
UACC-62 melanoma = tested on: UACC-62 melanoma
SR leukemia = tested on: SR leukemia
HS 578T breast = tested on: HS 578T breast
MOLT-4 leukemia = tested on: MOLT-4 leukemia
K-562 leukemia = tested on: K-562 leukemia
HL-60(TB) leukemia = tested on: HL-60(TB) leukemia

C/C(=N\Nc1nc2ccccc2s1)c1cc2ccccc2cn1
TGI (SF-268 CNS): > 100 µM
TGI (NCI-H226 lung): 7.56 µM
TGI (HOP-62 NSCLC): 41.7 µM
TGI (OVCAR-4 ovarian): 62.2 µM
TGI (SW-620 colon): > 100 µM
TGI (786-0 renal): 9.35 µM
TGI (UACC-257 melanoma): 57.8 µM
TGI (ACHN renal): > 100 µM
TGI (TK-10 renal): > 100 µM
TGI (SK-OV-3 ovarian): 10.7 µM
TGI (CCRF-CEM leukemia): 8.04 µM
TGI (SN12C renal): 30.8 µM
TGI (HOP-92 NSCLC): 93.6 µM
TGI (RXF 393 renal): 16 µM
TGI (MCF7 breast): > 100 µM
TGI (HT29 colon): 11 µM
TGI (A549 NSCLC): > 100 µM
TGI (LOX IMVI melanoma): 10.4 µM
TGI (SF-295 CNS): 19.3 µM
TGI (HCT-15 colon): 34.3 µM
TGI (OVCAR-8 ovarian): 16.5 µM
TGI (NCI-H23 lung): 18.1 µM
TGI (OVCAR-3 ovarian): 6.96 µM
TGI (HCT-116 colon): 10.6 µM
TGI (NCI-H460 lung): 33.7 µM
TGI (DU-145 prostate): 12.6 µM
TGI (SK-MEL-5 melanoma): 11.9 µM
TGI (A498 renal): 29 µM
TGI (HCC-2998 colon): 27.2 µM
TGI (NCI-H522 lung): 26 µM
TGI (SNB-75 CNS): 32.4 µM
TGI (MDA-MB-435): 72.8 µM
TGI (T-47D breast): 23.2 µM
TGI (MDA-N): > 100 µM
TGI (BT-549 breast): 45.8 µM
TGI (CAKI-1 renal): 17.6 µM
TGI (IGROV1 ovarian): 16 µM
TGI (SK-MEL-2 melanoma): > 100 µM
TGI (KM12 colon): 94.4 µM
TGI (MALME-3M melanoma): > 100 µM
TGI (EKVX NSCLC): 69.4 µM
TGI (MDA-MB-231 breast): 33.9 µM
TGI (RPMI-8226 leukemia): > 100 µM
TGI (U251 CNS): > 100 µM
TGI (SNB-19 CNS): > 100 µM
TGI (UO-31 renal): 14.8 µM
TGI (SK-MEL-28 melanoma): > 100 µM
TGI (NCI/ADR-RES ovarian): 42 µM
TGI (M14 melanoma): 23.2 µM
TGI (OVCAR-5 ovarian): 54.5 µM
TGI (PC-3 prostate): > 100 µM
TGI (COLO 205 colon): 13.3 µM
TGI (SF-539 CNS): 25.6 µM
TGI (UACC-62 melanoma): 21.1 µM

CN(CCc1ccccn1)C(=S)N/N=C(\c1ccccc1)c1ccccn1
TGI (SR leukemia): 15.9 µM
TGI (HOP-62 NSCLC): 7.95 µM
TGI (OVCAR-4 ovarian): 2.23 µM
TGI (SW-620 colon): 20.2 µM
TGI (786-0 renal): 2.68 µM
TGI (UACC-257 melanoma): 1.94 µM
TGI (ACHN renal): 1.92 µM
TGI (TK-10 renal): 3.27 µM
TGI (SK-OV-3 ovarian): 2.19 µM
TGI (CCRF-CEM leukemia): > 100 µM
TGI (SN12C renal): 15 µM
TGI (HS 578T breast): > 26.4 µM
TGI (HOP-92 NSCLC): 3.59 µM
TGI (MOLT-4 leukemia): 7.26 µM
TGI (RXF 393 renal): 2.83 µM
TGI (MCF7 breast): > 100 µM
TGI (K-562 leukemia): > 100 µM
TGI (HT29 colon): 2.77 µM
TGI (HL-60(TB) leukemia): > 100 µM
TGI (A549 NSCLC): 8.42 µM
TGI (LOX IMVI melanoma): 2.04 µM
TGI (SF-295 CNS): 2.7 µM
TGI (HCT-15 colon): 12.8 µM
TGI (OVCAR-8 ovarian): 1.56 µM
TGI (NCI-H23 lung): 4.26 µM
TGI (OVCAR-3 ovarian): 10.4 µM
TGI (HCT-116 colon): 2.02 µM
TGI (NCI-H460 lung): 7.07 µM
TGI (DU-145 prostate): 5.66 µM
TGI (SK-MEL-5 melanoma): 6.65 µM
TGI (A498 renal): 0.942 µM
TGI (HCC-2998 colon): 5.39 µM
TGI (NCI-H522 lung): 5.22 µM
TGI (SNB-75 CNS): 4.25 µM
TGI (MDA-MB-435): 8.09 µM
TGI (T-47D breast): 4.82 µM
TGI (MDA-N): 8.51 µM
TGI (CAKI-1 renal): 5.3 µM
TGI (IGROV1 ovarian): 1.57 µM
TGI (SK-MEL-2 melanoma): 4.35 µM
TGI (KM12 colon): 2.37 µM
TGI (MALME-3M melanoma): 3.14 µM
TGI (EKVX NSCLC): 2 µM
TGI (RPMI-8226 leukemia): 2.14 µM
TGI (U251 CNS): > 36.6 µM
TGI (SNB-19 CNS): 9.07 µM
TGI (UO-31 renal): 1.83 µM
TGI (SK-MEL-28 melanoma): 6.01 µM
TGI (M14 melanoma): 8.43 µM
TGI (OVCAR-5 ovarian): 7.88 µM
TGI (PC-3 prostate): 6.67 µM
TGI (COLO 205 colon): 17.3 µM
TGI (UACC-62 melanoma): 2.04 µM
